{"source": "patent US20090312311A1", "about": "“COMBINATION OF ORGANIC COMPOUNDS” (priority 2006, published 2009)", "origin": "cited, not measured here", "key": {"cardiac hypertrophy": {"tested_on": "cardiac hypertrophy", "conditions": "transgenic mice that overexpress Hop; Kook et al. 2003"}, "[1]": {"tested_on": "hypertrophy induced by infusion of isoproterenol"}}, "data": [{"smiles": "CC(/C=C/C(=O)NO)=C\\[C@@H](C)C(=O)c1ccc(N(C)C)cc1", "note": "[trichostatin A]", "values": [{"measurement": "effect on cardiac hypertrophy", "setting": "cardiac hypertrophy", "result": "prevents cardiac hypertrophy"}, {"measurement": "effect on hypertrophy", "setting": "[1]", "result": "attenuates hypertrophy"}]}]}
